Measurements published in patent US10669268B2, “Bicyclic derivatives” (Hoffmann-La Roche Inc., priority 2012, dated 2020).
Counter-ions that a name gives are not always drawn.

Biological target: ATX (human His-tagged) (Homo sapiens (Human), UniProt Q13822)
Experiment: Human ATX enzyme inhibition assay (fluorescence quenching, MR121 substrate)
Format: biochemical
Settings: 30 nM ATX, 1 μM MR121 substrate, 30° C., pH 8.0
Procedure, shortened: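 Tris-HCl buffer at pH 8.0 contained 140 mM NaCl, 5 mM KCl, 1 mM each CaCl2 and MgCl2, and 0.01% Triton X-100. The MR121 substrate (1 μM final) was incubated with enzyme for 15 min at 30 °C, and activity was read by fluorescence quenching.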

SMILES | IC50 [nM]
N#Cc1ccc(COC(=O)N2C[C@@H]3CN(C(=O)c4ccc5[nH]nnc5c4)C[C@H]3C2)c(OCC(F)(F)F)c1 [Example 4.66, (3aS,6aS)-5-(1H-benzotriazole-5-carbonyl)-hexahydro-pyrrolo[3,4-c]pyrrole-2-carboxylic acid 4-cyano-2-(2,2,2-trifluoro-ethoxy)-benzyl ester] | 40
O=C(OCc1ccc(OC(F)(F)F)c(F)c1)N1C[C@@H]2CN(C(=O)c3ccc4[nH]nnc4c3)C[C@H]2C1 [Example 4.43, (3aS,6aS)-5-(1H-benzotriazole-5-carbonyl)-hexahydro-pyrrolo[3,4-c]pyrrole-2-carboxylic acid 3-fluoro-4-trifluoromethoxy-benzyl ester] | 4
O=C(/C=C/c1ccc(OC(F)F)cc1)N1C[C@H]2CCN(C(=O)c3ccc4[nH]nnc4c3)C[C@@H]2C1 (single isomer, unassigned) [Example 15.32] | 19
O=C(/C=C/c1ccc(OC(F)(F)F)cc1)N1C[C@H]2CCN(C(=O)c3ccc4[nH]nnc4c3)C[C@@H]2C1 (single isomer, unassigned) [Example 15.25] | 44
O=C(OCc1cc(Cl)cc(Cl)c1)N1C[C@@H]2CN(C(=O)c3ccc4[nH]ccc4c3)C[C@@H]2C1 [Example 1.05, (3aR,6aS)-3,5-dichlorobenzyl 5-(1H-indole-5-carbonyl)hexahydropyrrolo[3,4-c]pyrrole-2(1H)-carboxylate] | 90
COc1cc(Cl)cc(/C=C/C(=O)N2C[C@@H]3CN(C(=O)c4ccc5[nH]nnc5c4)C[C@H]3C2)c1 [Example 15.49] | 16
O=C(/C=C/c1cc(Cl)cc(Cl)c1)N1CC[C@@H]2CN(C(=O)c3ccc4[nH]nnc4c3)C[C@H]2C1 (relative stereo) [Example 13, (E)-1-[trans-2-(1H-Benzotriazole-5-carbonyl)-octahydro-pyrrolo[3,4-c]pyridin-5-yl]-3-(3,5-dichloro-phenyl)-prop-2-en-1-one] | 57
O=C(CCc1ccc(OC(F)(F)F)cc1)N1C[C@@H]2CN(C(=O)c3ccc4[nH]nnc4n3)C[C@H]2C1 [Example 1.50, 1-[(3aR,6aR)-5-(1H-triazolo[4,5-b]pyridine-5-carbonyl)-1,3,3a,4,6,6a-hexahydropyrrolo[3,4-c]pyrrol-2-yl]-3-[4-(trifluoromethoxy)phenyl]propan-1-one] | 17
O=C(/C=C/c1ccc(Cl)cc1)N1C[C@H]2CCN(C(=O)c3ccc4[nH]nnc4c3)CC[C@H]2C1 [Example 15.19] | 9
O=C(OCc1ccc(OC(F)(F)F)cc1)N1C[C@@H]2CN(C(=O)c3cc4nn[nH]c4cn3)C[C@H]2C1 [Example 1.51, (3aS,6aS)-5-(3H-[1,2,3]triazolo[4,5-c]pyridine-6-carbonyl)-hexahydro-pyrrolo[3,4-c]pyrrole-2-carboxylic acid 4-trifluoromethoxy-benzyl ester] | 41
O=C(/C=C/c1cccc(OC(F)(F)F)c1)N1C[C@H]2CCN(C(=O)c3ccc4[nH]nnc4c3)C[C@@H]2C1 [Example 15.73] | 116
O=C(/C=C/c1cc(Cl)cc(Cl)c1)N1CC[C@@H]2CN(C(=O)c3ccc4[nH]nnc4c3)C[C@@H]2CC1 [Example 15.27] | 2
O=C(OCc1ccc(C(F)(F)F)cc1F)N1C[C@@H]2CN(C(=O)c3ccc4[nH]nnc4c3)C[C@H]2C1 [Example 4.56, (3aS,6aS)-5-(1H-benzotriazole-5-carbonyl)-hexahydro-pyrrolo[3,4-c]pyrrole-2-carboxylic acid 2-fluoro-4-trifluoromethyl-benzyl ester] | 9
O=C(OCCC1CCCCC1)N1C[C@@H]2CN(C(=O)c3ccc4[nH]nnc4c3)C[C@@H]2C1 [Example 4.22, (3aR,6aS)-2-cyclohexylethyl 5-(1H-benzo[d][1,2,3]triazole-5-carbonyl)hexahydropyrrolo[3,4-c]pyrrole-2(1H)-carboxylate] | 1380
O=C(OCc1cc(Cl)cc(Cl)c1)N1C[C@@H]2CN(C(=O)c3ccc4[nH]nnc4c3)C[C@@H]2C1 [Example 1.03, (3aR,6aS)-3,5-dichlorobenzyl 5-(1H-benzo[d][1,2,3]triazole-5-carbonyl)hexahydropyrrolo[3,4-c]pyrrole-2(1H)-carboxylate] | 25
O=C(/C=C/c1ccc(Cl)cc1)N1CC[C@@H]2CN(C(=O)c3ccc4[nH]nnc4c3)C[C@@H]2CC1 [Example 15.06] | 12
O=C(/C=C/c1cc(F)cc(C(F)(F)F)c1)N1C[C@@H]2CN(C(=O)c3ccc4[nH]nnc4c3)C[C@@H]2C1 [Example 15.02] | 96
O=C(/C=C/c1ccc(OC(F)(F)F)cc1)N1CC[C@@H]2CN(C(=O)[C@@H]3CCc4[nH]nnc4C3)C[C@@H]2CC1 [Example 1.21, (E)-1-[(3aS,8aR)-2-((R)-4,5,6,7-tetrahydro-1H-benzotriazole-5-carbonyl)-octahydro-pyrrolo[3,4-d]azepin-6-yl]-3-(4-trifluoromethoxy-phenyl)-prop-2-en-1-one] | 5
O=C(/C=C/c1cccc(OC(F)(F)F)c1)N1CC[C@@H]2CN(C(=O)c3ccc4[nH]nnc4c3)C[C@@H]2CC1 [Example 15.72] | 15
N#Cc1ccc(/C=C/C(=O)N2C[C@H]3CCN(C(=O)c4ccc5[nH]nnc5c4)C[C@@H]3C2)cc1 (single isomer, unassigned) [Example 15.33] | 328

Now from value to compound:

IC50 [nM] | SMILES
8 | CC(C)c1cc(C#N)ccc1OCC(=O)N1C[C@@H]2CN(C(=O)c3ccc4[nH]nnc4c3)C[C@H]2C1 [Example 19.03, 4-{2-[(3aS,6aS)-5-(1H-benzotriazole-5-carbonyl)-hexahydro-pyrrolo[3,4-c]pyrrol-2-yl]-2-oxo-ethoxy}-3-isopropyl-benzonitrile]
309 | O=C(CCc1ccc(OC(F)(F)F)cc1)N1CC[C@@H]2CN(Cc3ccc4[nH]nnc4c3)C[C@H]2C1 (relative stereo) [Example 17.16, 1-[trans-2-(1H-benzotriazol-5-ylmethyl)-octahydro-pyrrolo[3,4-c]pyridin-5-yl]-3-(4-trifluoromethoxy-phenyl)-propan-1-one]
5 | O=C(/C=C/c1ccc(OC(F)(F)F)c(Cl)c1)N1C[C@H]2CCN(C(=O)c3ccc4[nH]nnc4c3)C[C@@H]2C1 [Example 15.75]
6740 | O=C(/C=C/c1ccc(OC(F)(F)F)cc1)N1CC[C@@H]2CN(C(=O)[C@@H]3Cc4[nH]cnc4CN3)C[C@@H]2CC1 [Example 18, (E)-3-[4-(Trifluoro-methoxy)-phenyl]-1-[(3aS,8aR)-2-((S)-4,5,6,7-tetrahydro-1H-imidazo[4,5-c]pyridine-6-carbonyl)-octahydro-pyrrolo[3,4-d]azepin-6-yl]-prop-2-en-1-one hydrochloride]
19 | O=C(/C=C/c1ccc(-c2ccccn2)cc1)N1C[C@@H]2CN(C(=O)c3ccc4[nH]nnc4c3)C[C@H]2C1 [Example 15.81, (E)-1-[(3aR,6aR)-5-(1H-benzotriazole-5-carbonyl)-hexahydro-pyrrolo[3,4-c]pyrrol-2-yl]-3-(4-pyridin-2-yl-phenyl)-prop-2-en-1-one]
36 | CCOc1cc(C#N)ccc1OCC(=O)N1C[C@@H]2CN(C(=O)c3ccc4[nH]nnc4c3)C[C@H]2C1 [Example 19.08, 4-{2-[(3aS,6aS)-5-(1H-benzotriazole-5-carbonyl)-hexahydro-pyrrolo[3,4-c]pyrrol-2-yl]-2-oxo-ethoxy}-3-ethoxy-benzonitrile]
921 | COc1cc(C#N)ccc1OCC(=O)N1C[C@@H]2CN(C(=O)c3ccc4[nH]nnc4c3)C[C@H]2C1 [Example 15.93]
10 | O=C(c1ccc2[nH]nnc2c1)N1C[C@H]2CN(C(=O)[C@H]3CC[C@H](c4ccc(Cl)cc4)CC3)C[C@@H]2C1 [Example 19.17, [(3aR,6aR)-5-(1H-benzotriazole-5-carbonyl)-hexahydro-pyrrolo[3,4-c]pyrrol-2-yl]-[trans-4-(4-chloro-phenyl)-cyclohexyl]-methanone]
74 | N#Cc1cc(OC(F)(F)F)ccc1OCC(=O)N1C[C@@H]2CN(C(=O)c3ccc4[nH]nnc4c3)C[C@H]2C1 [Example 15.96]
7 | CC(C)Oc1cc(C(=O)N2C[C@@H]3CN(C(=O)[C@@H]4CCc5[nH]nnc5C4)C[C@H]3C2)cc2ccccc12 [Example 19.24, [(3aS,6aS)-5-[(5R)-4,5,6,7-tetrahydro-1H-benzotriazole-5-carbonyl]-1,3,3a,4,6,6a-hexahydropyrrolo[3,4-c]pyrrol-2-yl]-(4-propan-2-yloxynaphthalen-2-yl)methanone]
7 | O=C(c1ccc(-c2ccc(Cl)cc2)cc1)N1C[C@@H]2CN(C(=O)c3ccc4[nH]nnc4c3)C[C@H]2C1 [Example 19.02, (1H-benzotriazol-5-yl)-[(3aR,6aR)-5-(4′-chloro-biphenyl-4-carbonyl)-hexahydro-pyrrolo[3,4-c]pyrrol-2-yl]-methanone]
685 | O=C(c1cnc(OCC2CC2)c(Br)c1)N1C[C@@H]2CN(C(=O)c3ccc4[nH]nnc4c3)C[C@H]2C1 [Example 19.41, ((3aS,6aS)-5-(1H-benzo[d][1,2,3]triazole-5-carbonyl)hexahydropyrrolo[3,4-c]pyrrol-2(1H)-yl)(5-bromo-6-(cyclopropylmethoxy)pyridin-3-yl)methanone]
135 | O=C(/C=C/c1ccc(-c2ccncc2)cc1)N1C[C@@H]2CN(C(=O)c3ccc4[nH]nnc4c3)C[C@H]2C1 [Example 15.79, (E)-1-[(3aR,6aR)-5-(1H-benzotriazole-5-carbonyl)-hexahydro-pyrrolo[3,4-c]pyrrol-2-yl]-3-(4-pyridin-4-yl-phenyl)-prop-2-en-1-one]
